Assay results taken from the supplement of paper PMC11451515.

Tested on: P12-Ichikawa
Test: cell viability relative to DMSO control; higher = less cytotoxic
Details: 48 h
In short: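 Library compounds in DMSO were pin-dosed into 1536-well plates (5 μl) holding NOMO1 or SEM (500 cells/well) or P12-Ichikawa (1000 cells/well) leukemia cells, across an 11-point threefold series of 47 μM to 0.79 nM. Each cell line had been adapted for at least four passages in each medium. CellTiter-Glo One luminescence was read after 48 h at 37°C. Viability is the per-plate percentage relative to DMSO wells, with cell-free wells as background.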

[1] = HPLM + 10% dialyzed FBS, 0.000781 µM
[2] = HPLM + 10% dialyzed FBS, 0.00234 µM
[3] = HPLM + 10% dialyzed FBS, 0.00702 µM
[4] = HPLM + 10% dialyzed FBS, 0.0211 µM
[5] = HPLM + 10% dialyzed FBS, 0.0632 µM
[6] = HPLM + 10% dialyzed FBS, 0.19 µM
[7] = HPLM + 10% dialyzed FBS, 0.569 µM
[8] = HPLM + 10% dialyzed FBS, 1.71 µM
[9] = HPLM + 10% dialyzed FBS, 5.12 µM
[10] = HPLM + 10% dialyzed FBS, 15.4 µM
[11] = HPLM + 10% dialyzed FBS, 46.1 µM
[12] = RPMI 5 mM glucose + 10% dialyzed FBS, 0.000781 µM
[13] = RPMI 5 mM glucose + 10% dialyzed FBS, 0.00234 µM
[14] = RPMI 5 mM glucose + 10% dialyzed FBS, 0.00702 µM
[15] = RPMI 5 mM glucose + 10% dialyzed FBS, 0.0211 µM
[16] = RPMI 5 mM glucose + 10% dialyzed FBS, 0.0632 µM
[17] = RPMI 5 mM glucose + 10% dialyzed FBS, 0.19 µM
[18] = RPMI 5 mM glucose + 10% dialyzed FBS, 0.569 µM
[19] = RPMI 5 mM glucose + 10% dialyzed FBS, 1.71 µM
[20] = RPMI 5 mM glucose + 10% dialyzed FBS, 5.12 µM
[21] = RPMI 5 mM glucose + 10% dialyzed FBS, 15.4 µM
[22] = RPMI 5 mM glucose + 10% dialyzed FBS, 46.1 µM
[23] = RPMI 5 mM glucose + 10% FBS, 0.000781 µM
[24] = RPMI 5 mM glucose + 10% FBS, 0.00234 µM
[25] = RPMI 5 mM glucose + 10% FBS, 0.00702 µM
[26] = RPMI 5 mM glucose + 10% FBS, 0.0211 µM
[27] = RPMI 5 mM glucose + 10% FBS, 0.0632 µM
[28] = RPMI 5 mM glucose + 10% FBS, 0.19 µM
[29] = RPMI 5 mM glucose + 10% FBS, 0.569 µM
[30] = RPMI 5 mM glucose + 10% FBS, 1.71 µM
[31] = RPMI 5 mM glucose + 10% FBS, 5.12 µM
[32] = RPMI 5 mM glucose + 10% FBS, 15.4 µM
[33] = RPMI 5 mM glucose + 10% FBS, 46.1 µM

SMILES | cell viability [1] [%] | cell viability [2] [%] | cell viability [3] [%] | cell viability [4] [%] | cell viability [5] [%] | cell viability [6] [%] | cell viability [7] [%] | cell viability [8] [%] | cell viability [9] [%] | cell viability [10] [%] | cell viability [11] [%] | cell viability [12] [%] | cell viability [13] [%] | cell viability [14] [%] | cell viability [15] [%] | cell viability [16] [%] | cell viability [17] [%] | cell viability [18] [%] | cell viability [19] [%] | cell viability [20] [%] | cell viability [21] [%] | cell viability [22] [%] | cell viability [23] [%] | cell viability [24] [%] | cell viability [25] [%] | cell viability [26] [%] | cell viability [27] [%] | cell viability [28] [%] | cell viability [29] [%] | cell viability [30] [%] | cell viability [31] [%] | cell viability [32] [%] | cell viability [33] [%]
CC(C)OC(=O)C(C(=O)OC(C)C)=C1S\C=C/S1 | 138 | 124 | 122 | 133 | 113 | 124 | 123 | 124 | 126 | 118 | 101 |  |  |  |  |  |  |  |  |  |  |  |  |  |  |  |  |  |  |  |  |  | 
CC[C@]12CC[C@H]3[C@@H](CCC/4=C/C(=O)CC[C@H]34)[C@@H]1\C=C/[C@@]2(O)C#C | 109 | 124 | 124 | 125 | 132 | 129 | 128 | 120 | 122 | 123 | 119 | 106 | 110 | 121 | 115 | 119 | 114 | 124 | 123 | 118 | 113 | 116 |  |  |  |  |  |  |  |  |  |  | 
COc1ccc(-c2ccc3ncc4c(c3c2)n(-c2ccc(N3CCNCC3)c(C(F)(F)F)c2)c(=O)n4C)cn1 | 99.5 | 92.5 | 79.1 | 74.1 | 72.5 | 48.5 | 48.9 | 40.1 | 30 | 4.22 | 3.22 | 86.1 | 91.5 | 63 | 65.8 | 60.9 | 47.1 | 34 | 5.19 | 5.18 | 4.63 | 3.63 | 81.7 | 73.2 | 72.3 | 64.2 | 59.4 | 34.7 | 22 | 8.29 | 6.08 | 4.14 | 4
COc1cc(OC2CCN(C)CC2)ccc1Nc1ncc2c(n1)n(C1CCCC1)c(=O)n2C | 83.2 | 85.4 | 83 | 91.2 | 91.6 | 97.9 | 88.5 | 92.8 | 99.6 | 86.2 | 2.55 | 76.7 | 80.6 | 76.3 | 85.5 | 86.1 | 80.4 | 86.5 | 83 | 85.6 | 61.4 | 0.821 | 74.9 | 93.8 | 82.7 | 88.2 | 85.8 | 81.4 | 91.6 | 81.3 | 87.2 | 69.9 | 5.17
CCOC(=O)[C@@H](N)Cc1ccc(-c2cc(O[C@H](c3ccc(Cl)cc3-n3ccc(C)n3)C(F)(F)F)nc(N)n2)cc1.O=C(O)CNC(=O)c1ccccc1 | 107 | 110 | 103 | 112 | 106 | 110 | 109 | 111 | 109 | 103 | 70.2 | 109 | 113 | 107 | 107 | 102 | 113 | 110 | 108 | 107 | 103 | 44.1 | 117 | 112 | 107 | 122 | 114 | 121 | 120 | 122 | 107 | 96.2 | 56.3
CNCCCC12CCC(c3ccccc31)c1ccccc12 | 93.5 | 95.7 | 96.7 | 95.5 | 103 | 96.2 | 95.8 | 92.7 | 87.8 | 85.8 | 63.5 | 93 | 98.2 | 96.6 | 101 | 98.3 | 88.7 | 97.7 | 85.7 | 86.5 | 73.1 | 54.8 | 94.1 | 99.5 | 102 | 103 | 104 | 95.9 | 91.8 | 90.2 | 84.4 | 76.6 | 62.6
C[C@@]12C(=O)OC(=O)[C@@]1(C)C1CCC2O1 | 106 | 103 | 106 | 112 | 111 | 108 | 109 | 92.2 | 90 | 13.2 | 12.4 | 104 | 111 | 109 | 104 | 105 | 109 | 105 | 97.5 | 93.3 | 10.6 | 7.9 | 110 | 102 | 102 | 109 | 106 | 98.9 | 103 | 102 | 92.3 | 8.07 | 6.24
NC\1=N\C(=O)N(\C=C1)[C@@H]2O[C@H](CO)[C@@H](O)[C@@H]2O | 26.1 | 22.9 | 9.22 | 8.83 | 4.99 | 6.11 | 6.14 | 4.49 | 3.27 | 2.43 | 0.778 | 20 | 16.6 | 11.1 | 10.5 | 7.45 | 6.15 | 7.46 | 5.67 | 3.34 | 3.72 | 1.87 | 14.9 | 15.4 | 9.94 | 5.41 | 3.93 | 3.94 | 3.63 | 2.08 | 1.73 | 1.04 | 0.402
